# Assay results published in patent US20250288557A1, “FORMULATION AND METHOD FOR TREATMENT OF INFECTIONS” (priority 2022, published 2025).
# Where two headings read alike, the source gives them in different places.
# Test system: Piglets
# Conditions: for Mortality (%): (number of dead pigs/number of pigs enrolled)x100; for Clinical observations (%): percentage of pigs expressing clinical signs suggestive of product(s) side-effects: po
# Method: Safety Study: Studies for safety were conducted. The trials assessed the active ingredients individually and according to various combinations.
# Example Safety Study: The following provides the procedure(s) and data collected from the exemplary safety study.
# Six different sets of pigs were tested with six different formulations: • 1. […] Statin or Atorvastatin (1.6 mg/dose) • 3. Indomethacin (3.64 mg/dose) • 4. Doxycycline (6 mg/dose) • 5. Cimetidine (18 mg/dose) • 6. Positive control (compounded formulation of Atorvastatin, Indomethacin, […], Doxycycline, and Cimetidine)
# Methods: A sow farm negative for Porcine Reproductive and Respiratory Syndrome virus (PRRSv) and Mycoplasma hyopneumoniae and experiencing little to no piglet enteric health challenges was enrolled for the study. Piglets (12-14 days of age) orally received one of the six formulations identified above. When receiving a formulation, 1 mL of assigned treatment was obtained and provided to the Piglets.
# At d0 and d1, pen-level fecal consistency was studied. At d1, piglet mortality was recorded.
# Fecal scores: Average fecal score (pen-level). Fecal scours 0, 1, 2, and 3 corresponded to normal, pasty, semi-liquid, and liquid feces, respectively, with scores of ≥2 corresponding to diarrhea.
# Mortality: %=(number of dead pigs/number of pigs enrolled)×100.
Compound,Mortality (%) (d 0),Mortality (%) (d 1),"Fecal score of a single litter (pig, in vivo)","Fecal scores: average fecal score (pen-level) (pig, in vivo)","Palatability (%): percentage of pigs expressing clinical signs suggestive of poor palatability (pig, in vivo) [%]","Fecal scores: average fecal score (pen-level) (pig, in vivo, 1 day)","Clinical observations (%): percentage of pigs expressing clinical signs suggestive of product(s) side-effects (pig, in vivo, 0 day) [%]","Clinical observations (%): percentage of pigs expressing clinical signs suggestive of product(s) side-effects (pig, in vivo, 24 h) [%]"
CC(C)c1c(C(=O)Nc2ccccc2)c(-c2ccccc2)c(-c2ccc(F)cc2)n1CC[C@@H](O)C[C@@H](O)CC(=O)O [Atorvastatin],0.0,0.0,1,0.5,0.0,0.0,0.0,0.0
CN/C(=N/CCSCc1nc[nH]c1C)NC#N [Cimetidine],0.0,0.0,,0.0,0.0,0.0,0.0,0.0
C[C@H]1c2cccc(O)c2C(=O)C2=C(O)[C@]3(O)C(=O)C(C(N)=O)=C(O)[C@@H](N(C)C)[C@@H]3[C@@H](O)[C@@H]21 [Doxycycline],0.0,0.0,,0.0,0.0,0.0,0.0,0.0
COc1ccc2c(c1)c(CC(=O)O)c(C)n2C(=O)c1ccc(Cl)cc1 [Indomethacin],0.0,0.0,,0.0,0.0,0.0,0.0,0.0
